Results published in US6479474B2, “Dietary calcium as a supplement to vitamin D compound treatment of multiple sclerosis” (Wisconsin Alumni Research Foundation, priority 1999, dated 2002).

Assays:
[1] = tested on: lymphocytes in the draining LN; experiment: Total cell numbers in the draining lymph nodes of mice with EAE; type: in vivo; settings: male mice with EAE, 100 ng daily, d 21 post-immunization
Procedure: (§1) Lymphocytes. Axillary, brachial and inguinal lymph nodes (LN) from 6 mice were collected and pooled from control and 1,25-(OH)2D3 treated mice on d 21 post-immunization. Each experiment was repeated 3 times in its entirety. These LNs were chosen because they drained the site of immunization. Collected LN were disrupted manually using a 23 g needle and a pair of forceps. Total cell numbers in the LN were determined by counting the number of lymphocytes from control- and 1,25-(OH)2D3 treated mice and dividing by the number of mice in the group. Flow cytometry of fluorescent-labeled cell populations (Thy-1, class II, CD4 and CD8) were done on LN cells from control- and 1,25-(OH)2D3-treated mice using standard protocols and exactly as described (Smith, et al., 1987). For cytokine PCR analysis, LN cells were saved for total cellular RNA isolation.

[2] = tested on: lymphocytes in the draining LN; settings: in vivo treatments, literature (Cantorna 1998b); cited from earlier work
experimental arthritis = settings: literature (Cantorna 1998a); cited from earlier work
[3] = Body weight at end of the 50 d experiment; type: in vivo; settings: male mice, end of 50 d experiment, mean ± SD
Source text: (§2) Animals and Diets. The B10.PL mice were produced in our colony using breeding pairs obtained from Jackson Laboratories (Bar Harbor, Me.). During breeding, the mice were fed Purina diet 5008 Formilab (Richmond, Ind.), containing 100 IU/g of cholecalciferol (vitamin D3). Mice were used for experiments at 6-8 wk of age at which time the females were 18-22 g and the males were 22-26 g. For experiments, all of the mice were fed synthetic diets (Yang, et al., 1993; Smith, et al., 1987) with the modifications described below. For all experiments each mouse was fed 4 g of the experimental diet (completely eaten) and the diets were replaced every 2-3 days for the duration of each experiment. […] Although the experimental diet was devoid of vitamin D, the mice were exposed to normal light and, therefore, were not vitamin D deficient. EAE was induced in all mice one week after the experimental diets were started. For mice with severe symptoms of EAE, food was placed in small dishes on the bottom of the cage. At the end of the experiments, mice were weighed, killed, and bled.

LN cells = experiment: Flow cytometry of LN cell populations (Thy-1, CD4, CD8); type: in vivo, mice; settings: regardless of dietary calcium or 1,25-(OH)2D3 treatment
Procedure: as §1

TNF-α = settings: in vivo treatments, literature (Cantorna 1998b); cited from earlier work
TGF-β1 mRNA [4] = experiment: TGF-β1 transcript analysis in LN by quantitative competitive PCR; type: in vivo; settings: male mice with EAE, 100 ng daily, regardless of dietary calcium and number of cells in the LN
Procedure: (§3) Transcript analysis by quantitative competitive PCR. Cells for mRNA analysis were dissolved in acid guanidinium thiocyanate, and total RNA was isolated by the phenol chloroform extraction method (Chomczynski and Sacchi, 1987). Total cellular RNA was reverse-transcribed using oligo dT primers according to the manufacturer's protocols (Promega) and quantitated by competitive PCR. Primers and mimic DNA specific for glyceraldehyde-3-phosphate dehydrogenase (G3PDH), IL-4 and TGF-β1 were obtained from Clontech Laboratories, Inc. (Palo Alto, Calif.) (Siebert and Larrick, 1992; Siebert and Larrick, 1993). Competitive cDNA mimics which included the G3PDH, IL-4 and TGF-β1 primer sequences adjoining a neutral DNA segment, were serially diluted and added to test cDNA aliquots (Siebert and Larrick, 1992; Siebert and Larrick, 1993). The authentic product to mimic bp sizes were 983/600 for G3PDH, 306/544 for IL-4, and 525/390 for TGF-β1. The mixture was amplified under predetermined optimal conditions and the products were resolved by 1.5% agarose gel electrophoresis and ethidium bromide stained. […] The mimic DNA dilution that yielded a band with a fluorescence intensity that matched the cytokine band was used to calculate cytokine cDNA copy number. The G3PDH transcript quantitation served as a control for reverse transcription efficiency. […]

IL-4 mRNA [5] = settings: in vivo treatments, literature (Cantorna 1998b); cited from earlier work
[6] = tested on: experimental autoimmune encephalomyelitis (EAE) in B10.PL mice; settings: literature (Cantorna 1996; Lemire and Archer 1991); cited from earlier work
TGF-β1 mRNA [7] = settings: in vivo treatments, literature (Cantorna 1998b); cited from earlier work
G3PDH mRNA = experiment: G3PDH transcript analysis in LN by quantitative competitive PCR; type: in vivo; settings: LN of male mice with EAE, 100 ng daily
Procedure: as §3

IFN-γ = settings: in vivo treatments, literature (Cantorna 1998b); cited from earlier work
IL-4 mRNA [8] = experiment: IL-4 transcript analysis in LN by quantitative competitive PCR; type: in vivo; settings: male mice with EAE, 100 ng daily
Procedure: as §3

[9] = Serum calcium by atomic absorption spectrometry; type: in vivo, mice; settings: high dietary calcium, at EAE-preventing doses (6 ng/d females, 100 ng/d males)
Procedure: Serum calcium and 1,25-(OH)2D3 analysis. After 50 days the mice were killed, blood was collected by heart puncture and serum was collected following clot formation. Serum calcium concentrations were determined using a Perkin Elmer atomic absorption spectrometer exactly as described (Mohamed, et al., 1995). 1,25-(OH)2D3 analysis was done exactly as described (Arbour, et al., 1996).

transplant rejection = settings: literature (Bouillon 1995; Hullett 1998); cited from earlier work
[10] = tested on: experimental autoimmune encephalomyelitis (EAE) in B10.PL mice; experiment: EAE induction in B10.PL mice fed 1,25-(OH)2D3 and various dietary calcium: EAE incidence and prevention; type: in vivo; settings: for prevention of EAE: 20 mg calcium/100 g diet (low); for incidence of EAE: 20 mg calcium/100 g diet, lower doses that do not raise serum calcium; for times more 1,25-(OH)2D3 needed to prevent EAE in males than females: males vs females
Source text: as §2
In the first experimental design, male and female mice were fed diets which contained 1 g calcium/100 g diet and EAE was induced. In a second series of experiments groups of 8-12 mice were fed the experimental diet (control treatment) without vitamin D or the experimental diet plus various concentrations of 1,25-(OH)2D3 as indicated. Females were fed 1,25-(OH)2D3 ranging from 0 to 200 ng/d and the males were fed 0 to 800 ng/d. The experimental diet contained one of 3 calcium concentrations; 20 mg (low), 470 mg (medium) or 1 g (high) calcium/100 g diet as indicated. The final experimental design used only male which were fed the control diet or the same diet containing 100 ng 1,25-(OH)2D3/daily. These mice were fed diets, which contained low, medium, or high calcium as indicated. […] All of the procedures described were reviewed and approved by the University of Wisconsin-Madison Research Animal Resources Center Committee Review Board on Sep. 9, 1994 and the protocol number is A-07-3000-A00755-4-08-94.
EAE disease induction. Myelin basic protein (MBP) was isolated from guinea pig spinal cords (Cantorna, et al., 1996). MBP was lyophilized and stored at −20° C. For immunizations, MBP was dissolved in 0.1 mol/L acetic acid at a concentration of 8 g/L (Cantorna, et al., 1996). Ether anesthetized mice were immunized subcutaneously with 0.1 ml of MBP ([…]) emulsified in an equal volume of Complete Freund's Adjuvant (CFA, Difco Laboratories, Detroit, Mich.) containing Mycobacterium tuberculosis H37 Ra. In addition, on the day of immunization and two days later mice were injected i.p. with 200 ng of pertussis toxin (LIST Biological Laboratories, Campbell, Calif.) suspended in sterile saline. […] Male mice were killed on d 21 post-immunization to measure various immune responses. The EAE scoring system was: 0=normal; 1=limp tail; 2=paraparesis with a clumsy gait; 3=hind limb paralysis; 4=hind and fore limb paralysis; 5=moribund.

## C=C1/C(=C\C=C2/CCC[C@]3(C)[C@@H]([C@H](C)CCCC(C)(C)O)CC[C@@H]23)C[C@@H](O)C[C@@H]1O [1,25-(OH)2D3, 1α,25-dihydroxyvitamin D3]
[1]; low calcium diets
  total number of cells in the LN: the same as controls
[1]; with addition of calcium to the diet
  total number of cells in the LN: decreased dramatically
[2]
  total number of lymphocytes: net loss
Experimental arthritis
  development of experimental arthritis: prevent
[3]; dietary calcium 20 mg/100 g, high dose 800 ng/day
  Weight: 13 ± 3 g
[3]; dietary calcium 20 mg/100 g, intermediate dose 40-500 ng/d
  Weight: 27 ± 2 g
[3]; dietary calcium 470 mg/100 g, high dose 400 ng/day
  Weight: 17 ± 3 g
[3]; dietary calcium 470 mg/100 g, intermediate dose 50-200 ng/d
  Weight: 23 ± 2 g
[3]; dietary calcium 1 g/100 g, high dose 100-400 ng/day
  Weight: 15 ± 1 g
[3]; dietary calcium 1 g/100 g, intermediate dose 10-50 ng/d
  Weight: 25 ± 2 g
LN cells
  CD4+ cells: 40-44 % of the LN
  CD8+ cells: 18-21 % of the LN
  Thy-1 positive cells: 52-57 % of the LN
TNF-α
  TNF-α expression: no effect
TGF-β1 mRNA [4]
  TGF-β1 mRNA expression in LN: high levels of TGF-β1
IL-4 mRNA [5]
  expression of IL-4: net increase
[6]
  development of EAE: prevent the development of EAE
TGF-β1 mRNA [7]
  expression of TGF-β1: net increase
G3PDH mRNA
  G3PDH mRNA expression: no effect
IFN-γ
  IFN-γ expression: no effect
IL-4 mRNA [8]; low calcium diets
  IL4 production (mRNA in LN): not different from controls
IL-4 mRNA [8]; medium to high calcium diets
  amount of IL-4 produced (mRNA in LN): increased as the calcium in the diet increased
[9]
  serum calcium: elevated
Transplant rejection
  transplant rejection: markedly inhibit transplant rejection
[10]; calcium removed from the diet
  reduction of the incidence of EAE: 50%
[10]; diet containing high calcium, appropriate doses
  effectiveness in preventing EAE: 100%
[10]; females, at 200 ng/d
  prevention of EAE: never completely prevented
[10]; females
  incidence of EAE: 45%
[10]; females, 470 mg calcium/100 g diet (medium)
  dose at which EAE was completely prevented: 200 ng/day
[10]; females, 1 g calcium/100 g diet (high)
  dose at which EAE was completely prevented: 6 ng/day
[10]; low calcium diets, males and females
  drop in EAE incidence compared to mice not treated: 40-45%
[10]; high calcium intakes
  times more 1,25-(OH)2D3 needed to prevent EAE in males than females: 17 times
[10]; overall
  times more 1,25-(OH)2D3 needed to prevent EAE in males than females: at least 4 times
[10]; males, at 800 ng/d
  prevention of EAE: never completely prevented
[10]; males
  incidence of EAE: 30%
[10]; males, 470 mg calcium/100 g diet (medium)
  dose at which EAE was completely prevented: 400 ng/day
[10]; males, 1 g calcium/100 g diet (high)
  dose at which EAE was completely prevented: 100 ng/day
[10]; treated mice, as the incidence dropped (data not shown)
  overall symptoms of EAE (day of onset, paralysis scores): decreased
